Experimental data taken from patent publication US8993624B2, “Method of preventing and treating inflammatory diseases and disorders with abscisic acid” (Virginia Tech Intellectual Properties, Inc., priority 2010, dated 2015).

System: PPAR γ
Format: cell-based

For CC1=CC(=O)CC(C)(C)C1(O)/C=C/C(C)=C\C(=O)O (single isomer, unassigned; (-)) [(−) ABA], the “concentration inducing maximal PPAR γ activation” value (1.25-10 μM tested, 20 hours) was 2.5 µM and the “PPAR γ activation (relative luciferase activity)” value (RAW 264.7, 20 hours) was “activated PPAR γ to a similar degree”.
